Data as given in ChEMBL document CHEMBL1201862, “PubChem BioAssay data set” (2004).
Blank lines part the entries; values can stand above or below the compound they belong to. Activity calls are given as the source filed them.

What was measured:
[1] = target: T1, Tyrosine-protein phosphatase non-receptor type 22 (Homo sapiens, UniProt Q9Y2R2); format: functional
T1 sequence (Q9Y2R2 whole entry): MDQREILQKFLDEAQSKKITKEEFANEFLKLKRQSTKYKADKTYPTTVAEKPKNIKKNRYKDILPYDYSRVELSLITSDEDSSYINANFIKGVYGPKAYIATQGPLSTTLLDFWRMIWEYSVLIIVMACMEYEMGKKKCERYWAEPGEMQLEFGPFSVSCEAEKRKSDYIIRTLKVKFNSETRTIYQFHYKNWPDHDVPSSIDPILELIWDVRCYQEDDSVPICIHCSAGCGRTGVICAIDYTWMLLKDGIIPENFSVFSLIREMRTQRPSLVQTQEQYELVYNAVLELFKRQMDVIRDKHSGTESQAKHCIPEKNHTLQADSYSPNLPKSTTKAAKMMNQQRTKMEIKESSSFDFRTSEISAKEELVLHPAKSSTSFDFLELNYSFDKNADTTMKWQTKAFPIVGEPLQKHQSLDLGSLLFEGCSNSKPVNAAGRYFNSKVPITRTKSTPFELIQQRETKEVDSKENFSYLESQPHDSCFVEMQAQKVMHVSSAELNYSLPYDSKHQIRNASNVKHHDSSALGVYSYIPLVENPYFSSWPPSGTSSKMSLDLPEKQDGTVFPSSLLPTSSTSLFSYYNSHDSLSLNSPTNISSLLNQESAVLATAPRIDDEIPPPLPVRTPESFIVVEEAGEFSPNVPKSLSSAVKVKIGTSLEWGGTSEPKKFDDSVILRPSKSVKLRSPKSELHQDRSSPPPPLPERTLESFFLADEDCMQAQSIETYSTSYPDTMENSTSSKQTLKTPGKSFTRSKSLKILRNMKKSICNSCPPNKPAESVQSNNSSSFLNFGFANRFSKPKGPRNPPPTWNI

[2] = Luminescence Cell-Based Dose Confirmation HTS to Identify Inhibitors of Platelet Dense Granule Release. [Related pubchem assays: 1663 (Primary HTS), 1678 (Summary of Project)]; format: functional
[3] = target: T2, Tyrosine-protein phosphatase non-receptor type 7 (Homo sapiens, UniProt P35236); format: functional
T2 sequence (P35236 whole entry): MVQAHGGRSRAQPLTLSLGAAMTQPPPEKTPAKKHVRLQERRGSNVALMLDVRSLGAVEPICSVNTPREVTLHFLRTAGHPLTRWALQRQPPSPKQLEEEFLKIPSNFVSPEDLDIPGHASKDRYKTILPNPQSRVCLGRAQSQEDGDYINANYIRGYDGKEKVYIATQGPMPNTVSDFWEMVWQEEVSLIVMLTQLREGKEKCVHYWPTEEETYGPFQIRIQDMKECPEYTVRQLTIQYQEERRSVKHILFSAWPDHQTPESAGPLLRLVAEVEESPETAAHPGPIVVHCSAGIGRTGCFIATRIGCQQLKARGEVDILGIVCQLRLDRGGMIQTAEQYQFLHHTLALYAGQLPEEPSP

[4] = target: Luciferin 4-monooxygenase (Photinus pyralis, UniProt P08659); test: inhibition of purified Photinus pyralis luciferase – biochemical, luminescence, dose response (AID 1891)
Sequence of Luciferin 4-monooxygenase (P08659 whole entry): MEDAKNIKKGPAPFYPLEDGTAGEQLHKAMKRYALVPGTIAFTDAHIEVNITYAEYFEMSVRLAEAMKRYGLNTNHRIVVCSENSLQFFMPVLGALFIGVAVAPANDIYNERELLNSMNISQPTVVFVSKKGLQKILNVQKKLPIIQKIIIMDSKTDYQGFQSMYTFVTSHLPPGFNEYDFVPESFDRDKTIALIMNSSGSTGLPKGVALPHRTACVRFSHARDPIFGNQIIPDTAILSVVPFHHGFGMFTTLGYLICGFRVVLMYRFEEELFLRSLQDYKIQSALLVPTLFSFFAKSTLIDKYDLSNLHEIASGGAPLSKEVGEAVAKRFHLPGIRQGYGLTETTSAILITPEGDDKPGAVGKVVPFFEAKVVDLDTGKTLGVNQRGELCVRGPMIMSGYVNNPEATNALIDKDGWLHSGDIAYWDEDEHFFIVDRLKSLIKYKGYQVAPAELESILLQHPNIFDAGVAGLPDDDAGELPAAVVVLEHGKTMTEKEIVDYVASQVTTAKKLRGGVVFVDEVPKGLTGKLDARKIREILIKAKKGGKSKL

[5] = target: T1, Tyrosine-protein phosphatase non-receptor type 22; format: functional; remark: listed apart in the source
[6] = system: Jurkat; test: blockers of NF-kB activation in T cells – Jurkat, luciferase reporter, luminescence, B- and T-cell, dose response (AID 489004); format: functional, cell-based; settings: Homo sapiens;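 also: NF-kB luciferase reporter Jurkat cells stimulated with PMA plus ionomycin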
[7] = HEK-293T viability loss, compound-treated – cell-based, uHTS hits, cytotoxicity control for B/T-cell NF-kB inhibitor project, dose response (AID 489019); format: functional;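 also: IC50 reflects cytotoxicity as loss of cell viability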
[8] = reduction of Shn3 3'UTR-driven luciferase in osteoblasts – cell-based, Clone20 osteoblasts, firefly luciferase, cherry-picked, dose response (AID 624132); format: functional;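 also: firefly luciferase luminescence from reporter carrying the Shn3 3'UTR in osteoblasts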
[9] = non-specific 3'UTR reporter inhibition in Clone20-Shn3RL – cell-based, Renilla luciferase, cherry-picked, counter-screen for Shn3 inhibitor project, dose response (AID 624133); format: functional
[10] = system: INS1; test: INS-1E survival protection against cytokine death – cell-based, luminescence, retest, dose response (AID 449756); format: functional; settings: Rattus norvegicus;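 also: cell death triggered by IL-1 beta plus TNF-alpha plus IFN-gamma mixture; protective hits raise ATP signal compared with cytokine alone wells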
[11] = NIH3T3 cell viability loss – ATP luminescence, mouse fibroblasts, counter-screen, dose response (AID 2010); format: functional, cell-based;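 also: cells exposed to compound for about 90 hours before reading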
[12] = loss of viability in HepG2 cells – cell-based, CellTiter-Glo, cherry-picked, cytotoxicity control for Shn3 inhibitor project, dose response (AID 624134); format: functional
[13] = Luminescence Cell-Based Dose Retest to Confirm Inhibitors of Cancer Stem Cells. [Related pubchem assays (depositor defined):AID2717, AID2721]; format: functional; settings: Homo sapiens
[14] = Trypanosoma cruzi growth suppression in host cells – NIH3T3 host cells, beta-gal luminescence, confirmation (AID 2044); format: functional, cell-based;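 also: intracellular parasites grown in NIH/3T3 mouse fibroblasts as host cells; luminescent beta-galactosidase reporter signal from transgenic T. cruzi replicating inside host cells; inhibitors lower the luminescence signal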
[15] = system: HEK293; test: cells; settings: Homo sapiens
[16] = system: HEK293; test: cells; settings: Homo sapiens; remark: listed apart in the source
[17] = target: T3, Alkaline phosphatase, tissue-nonspecific isozyme (Homo sapiens, UniProt P05186); test: potency against alkaline phosphatase TNAP – biochemical, luminescent, dose response, SAR follow-up (AID 1056)
T3 sequence (P05186 whole entry): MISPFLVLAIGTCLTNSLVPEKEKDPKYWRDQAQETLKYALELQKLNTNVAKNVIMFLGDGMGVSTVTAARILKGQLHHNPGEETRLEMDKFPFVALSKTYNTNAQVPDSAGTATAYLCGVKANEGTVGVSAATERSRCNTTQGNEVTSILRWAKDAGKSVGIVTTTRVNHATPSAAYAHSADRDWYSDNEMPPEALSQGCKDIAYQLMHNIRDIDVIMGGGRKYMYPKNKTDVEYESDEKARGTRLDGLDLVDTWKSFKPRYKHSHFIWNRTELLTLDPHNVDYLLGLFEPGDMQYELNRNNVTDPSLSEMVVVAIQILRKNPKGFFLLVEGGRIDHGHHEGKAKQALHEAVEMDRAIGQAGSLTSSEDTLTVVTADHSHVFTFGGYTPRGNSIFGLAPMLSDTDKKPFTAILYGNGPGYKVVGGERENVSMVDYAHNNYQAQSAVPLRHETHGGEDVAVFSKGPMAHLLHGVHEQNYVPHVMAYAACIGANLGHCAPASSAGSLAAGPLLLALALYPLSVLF

[18] = target: Alkaline phosphatase, placental type (Homo sapiens, UniProt P05187); test: human placental alkaline phosphatase inhibition – biochemical, luminescence, confirmation (AID 1512); format: functional
Sequence of Alkaline phosphatase, placental type (P05187 whole entry): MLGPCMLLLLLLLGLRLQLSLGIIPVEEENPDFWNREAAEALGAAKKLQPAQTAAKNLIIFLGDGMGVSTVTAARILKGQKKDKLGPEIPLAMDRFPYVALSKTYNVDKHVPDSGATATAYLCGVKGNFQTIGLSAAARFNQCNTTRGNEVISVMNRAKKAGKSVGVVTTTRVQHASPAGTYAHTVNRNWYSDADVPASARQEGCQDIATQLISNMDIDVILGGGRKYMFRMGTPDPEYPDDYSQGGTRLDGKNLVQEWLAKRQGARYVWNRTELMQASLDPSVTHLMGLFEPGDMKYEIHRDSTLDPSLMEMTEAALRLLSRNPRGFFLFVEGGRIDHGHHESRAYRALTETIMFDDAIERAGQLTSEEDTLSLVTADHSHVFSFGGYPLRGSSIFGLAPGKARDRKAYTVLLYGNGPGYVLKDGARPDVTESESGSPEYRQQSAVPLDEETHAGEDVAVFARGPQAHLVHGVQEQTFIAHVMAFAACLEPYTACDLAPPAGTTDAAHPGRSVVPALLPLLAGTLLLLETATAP

[19] = target: Large T antigen (Simian virus 40, UniProt P03070); format: functional, Betapolyomavirus macacae;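 also: Confirmatory-stage PubChem screen for compounds that inhibit SV40 T antigen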
Sequence of Large T antigen (P03070 whole entry): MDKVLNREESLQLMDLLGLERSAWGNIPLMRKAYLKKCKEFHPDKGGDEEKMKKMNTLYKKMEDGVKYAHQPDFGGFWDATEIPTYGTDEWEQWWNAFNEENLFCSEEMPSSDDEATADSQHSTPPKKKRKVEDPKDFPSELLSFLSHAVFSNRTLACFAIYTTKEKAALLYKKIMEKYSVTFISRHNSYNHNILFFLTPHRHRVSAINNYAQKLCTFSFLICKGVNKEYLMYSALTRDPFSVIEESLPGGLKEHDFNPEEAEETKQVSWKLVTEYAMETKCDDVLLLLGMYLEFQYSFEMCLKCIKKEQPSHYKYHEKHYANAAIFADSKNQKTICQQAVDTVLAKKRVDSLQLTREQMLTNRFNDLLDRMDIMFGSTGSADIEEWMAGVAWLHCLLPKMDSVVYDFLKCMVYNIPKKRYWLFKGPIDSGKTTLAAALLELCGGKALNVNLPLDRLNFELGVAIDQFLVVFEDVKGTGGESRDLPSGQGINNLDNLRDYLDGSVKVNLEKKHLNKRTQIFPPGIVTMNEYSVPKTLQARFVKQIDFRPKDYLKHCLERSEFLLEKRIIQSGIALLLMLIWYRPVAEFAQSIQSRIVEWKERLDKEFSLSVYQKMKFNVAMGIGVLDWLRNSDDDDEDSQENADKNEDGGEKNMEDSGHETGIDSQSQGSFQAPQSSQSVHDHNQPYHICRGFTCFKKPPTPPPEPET

SMILES: COC(=O)C(C(=O)NCC1CCCO1)C1CCCCCC1 (configuration not stated)
IC50 [1]: > 79.4 µM (inactive)
EC50 [2]: > 112 µM (not active)
IC50 [3]: > 79.4 µM (inactive)
EC50 [4]: > 112 µM (not active)
IC50 [5]: > 79.4 µM (inactive)

SMILES: Cc1sc2ncnc(N3CCN(CCOc4ccc(Cl)cc4)CC3)c2c1C
IC50 [6]: 64.1 µM (inactive)
IC50 [7]: > 80 µM (inactive)
AC50 [8]: 1.35 µM (active)
AC50 [9]: 6.27 µM (active)
AC50 [10]: 2.74 µM (active)
EC50 [11]: > 30 µM (not active)
AC50 [12]: 3.27 µM (active)
AC50 [13]: 5.5 µM (active)
EC50 [14]: 2.29 µM (active)

IC50 [1]: > 79.4 µM (inactive)
IC50 [3]: > 79.4 µM (inactive)
IC50 [5]: > 79.4 µM (inactive)
SMILES: Cc1cc(Cl)ccc1OCC(=O)OCC(=O)Nc1ccc(F)c([N+](=O)[O-])c1

SMILES: CC(C)Cc1cc(-c2ccco2)c(C#N)c(N)n1
EC50 [15]: > 59.6 µM (inactive)
EC50 [16]: > 59.6 µM (inactive)

IC50 [17]: > 100 µM (inactive)
IC50 [18]: 4.9 µM (active)
IC50 [19]: > 100 µM (active)
SMILES: Cn1c(SCC(=O)c2ccc(O)c(O)c2)nnc1-c1cccs1
